Data from PMC6380468, “Investigations on small molecule inhibitors targeting the histone H3K4 tri-methyllysine binding PHD-finger of JmjC histone demethylases” (Bioorganic & Medicinal Chemistry, 2018).

Molecular target: T1, KDM5A_c2 (Homo sapiens, UniProt P29375)
T1 sequence (P29375 with tags, fused parts or gaps): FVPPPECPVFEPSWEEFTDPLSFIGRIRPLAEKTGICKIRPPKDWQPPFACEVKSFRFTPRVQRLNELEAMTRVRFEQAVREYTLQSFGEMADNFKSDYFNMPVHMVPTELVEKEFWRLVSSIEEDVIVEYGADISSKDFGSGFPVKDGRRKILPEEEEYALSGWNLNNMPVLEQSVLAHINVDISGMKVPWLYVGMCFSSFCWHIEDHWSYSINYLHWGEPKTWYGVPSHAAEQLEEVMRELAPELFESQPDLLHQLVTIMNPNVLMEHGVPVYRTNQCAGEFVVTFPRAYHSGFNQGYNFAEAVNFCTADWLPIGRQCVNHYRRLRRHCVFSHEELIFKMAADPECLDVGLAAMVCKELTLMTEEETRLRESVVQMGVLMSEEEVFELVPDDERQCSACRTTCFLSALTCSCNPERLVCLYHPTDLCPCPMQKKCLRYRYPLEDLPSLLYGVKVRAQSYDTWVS
Assay: Formaldehyde dehydrogenase (FDH) enzyme-coupled fluorescence assay, kinetic analysis
Type: biochemical
Experimental: Enzyme mixture (25 µL) containing KDM5A-c2 (0.5 µM) and FDH (2.0 µM) in FDH buffer [50mM HEPES (50 mM), Tween20 (0.1%), NaCl (50 mM), pH 7.5 in MQ)] was prepared and aliquoted in a 384-well flat-bottom microplate (µClear, Greiner). The peptide mixture (25 µL) [ascorbate (2 mM), (NH4)2Fe(II)(SO4)2 (100 µM), 2OG (400 µM), H3(1-21)K4me3 peptide (ranging from 0 to 100 µM), β-NAD (500 µM), 2a (0 to 160 µM, in DMSO (2% final in this solution)) in FDH buffer] was added to initiate the reaction and the fluorescence was monitored (every 30 seconds over 25 min at 25.0 °C) using the PHERAstar (BMG LABTECH). The initial rates at each peptide concentrations were used to generate the Michaelis-Menten plots. Combined datasets from two independent experiments were globally fitted to a mixed inhibition model using Prism Ver 7.01, and Ki and α values were determined. Lineweaver-Burk plots were also generated using Prism Ver 7.01

[1] = KDM5A_c2, mixed inhibition model, with respect to H3K4me3 substrate, N=2

substrate of KDM5A_c2 (formaldehyde production in the absence of H3K4me3) (FDH coupled assay, no H3K4me3): not a substrate
mode of inhibition with respect to H3K4me3 (KDM5A_c2, Lineweaver-Burk plots): non-competitive
Ki [1]: 74 ± 28 µM
α [1]: 1.64 ± 0.85
SMILES: CCCCc1oc2ccccc2c1C(=O)c1ccc(OCCC[N+](C)(C)C)cc1.[I-] [Compound 2a, 3-(4-(2-Butylbenzofuran-3-carbonyl)phenoxy)-N,N,N-trimethylpropan-1-aminium iodide]
